According to patent US20240317752A1, “6-SUBSTITUTED-9H-PURINE DERIVATIVES AND RELATED USES” (Black Diamond Therapeutics, Inc., priority 2021, published 2024):

Target: T1, BaF3 BRAF-KIAA1549 fusion cells (Homo sapiens, UniProt P15056)
T1 construct: The BRAF-KIAA1549 fusion mutant was subcloned into pMXs-IRES-Blasticidin (RTV-016, Cell Biolabs, San Diego, CA); fused on or other part: Q9HCM3 (UPF0606 protein KIAA1549)
Experiment: BaF3 BRAF-KIAA1549 fusion cell proliferation assay (CellTiterGlo)
Format: cell-based
Settings: 96 hours incubation, potency code
Experimental: Retroviral Production: The BRAF-KIAA1549 fusion mutant was subcloned into pMXs-IRES-Blasticidin (RTV-016, Cell Biolabs, San Diego, CA). Retrovirus was produced by transfection of HEK 293T cells with the retroviral BRAF mutant expression vector pMXs-IRES-Blasticidin (RTV-016, Cell Biolabs), pCMV-Gag-Pol vector and pCMV-VSV-G-Envelope vector. Briefly, HEK 293T cells were plated in Poly-D-lysine coated 6-well plate (2.5×10^5 cells per well) and incubated overnight. The next day, retroviral plasmids (1 μg of BRAF-KIAA fusion mutant, 0.32 μg of pCMV-Gag-Pol and 0.165 μg pCMV-VSV-G) were mixed in 300 μL of Optimem (31985, Life Technologies). The mixture was incubated at room temperature for 5 minutes and then added to Optimem containing transfection reagent Lipofectamine (11668, Invitrogen) and incubated for 20 minutes. The mixture was then added dropwise to HEK 293T cells. The next day the medium was replaced with fresh culture medium and retrovirus was harvested at 24 hours.
Generation of BRAF-KIAA1549 fusion stable cell line: BaF3 cells were plated in V-bottom 96 well plate (COSTAR #3894) in 80 μL of RPMI/10% FBS and 0.01 ng/ml mouse IL-3; supplemented with 8 μg/mL polybrene (4×10^4 cells/well). Cells were transduced with 20 μL of BRAF-KIAA1549 fusion viral supernatant by centrifuging for 30 minutes at 1000 rpm. Cells were placed in a 37° C. incubator overnight. Next day 100 μL of RPMI/10% FBS and 0.01 ng/ml mouse IL-3 was added. After 24 hours, 100 μL of cells were transferred to a 24 well plate containing 900 μL of RPMI/10% FBS and 15 μg/mL Blasticidin. Contents of the 24 well plate were sampled for cell viability via CellTiterGlo (Promega) over a 2-week period.
Assay for cell proliferation: BaF3 BRAF-KIAA1549 fusion cells were resuspended at 1.5×10^5c/mL in RPMI containing 10% Heat Inactivated FBS, 1% L-glutamine and dispensed in duplicate ([…]) into 384 well plates. To determine the effect of compound on cell proliferation, BaF3 BRAF-KIAA1549 fusion cells were incubated for 96 hours in the presence of vehicle control (DMSO) or compound at varying concentrations. Inhibition of cell growth was determined by luminescent quantification (Envision by Perkin Elmer) of intracellular ATP content using CellTiterGlo (Promega), according to the protocol provided by the manufacturer. To determine the IC50 values, the vehicle-treated cells were normalized as viable cells and analyzed using the CDD Vault, Collaborative Drug Discovery, Burlingame, CA (the Levenberg-Marquardt algorithm; Levenberg, K., […]; Marquardt, D., 1963).
Tables A1 and A2 assign each compound a code for potency in the BaF3 BRAF-KIAA1549 fusion cell proliferation assay: A, B, C, or D. According to the code, A represents an IC50 value <20 nM; B represents an IC50 value ≥20 nM and <100 nM; C represents an IC50 value ≥100 nM and <500 nM; and D represents an IC50 value ≥500 nM.

T1 sequence (P15056 whole entry, change not shown, the tested form may be a part): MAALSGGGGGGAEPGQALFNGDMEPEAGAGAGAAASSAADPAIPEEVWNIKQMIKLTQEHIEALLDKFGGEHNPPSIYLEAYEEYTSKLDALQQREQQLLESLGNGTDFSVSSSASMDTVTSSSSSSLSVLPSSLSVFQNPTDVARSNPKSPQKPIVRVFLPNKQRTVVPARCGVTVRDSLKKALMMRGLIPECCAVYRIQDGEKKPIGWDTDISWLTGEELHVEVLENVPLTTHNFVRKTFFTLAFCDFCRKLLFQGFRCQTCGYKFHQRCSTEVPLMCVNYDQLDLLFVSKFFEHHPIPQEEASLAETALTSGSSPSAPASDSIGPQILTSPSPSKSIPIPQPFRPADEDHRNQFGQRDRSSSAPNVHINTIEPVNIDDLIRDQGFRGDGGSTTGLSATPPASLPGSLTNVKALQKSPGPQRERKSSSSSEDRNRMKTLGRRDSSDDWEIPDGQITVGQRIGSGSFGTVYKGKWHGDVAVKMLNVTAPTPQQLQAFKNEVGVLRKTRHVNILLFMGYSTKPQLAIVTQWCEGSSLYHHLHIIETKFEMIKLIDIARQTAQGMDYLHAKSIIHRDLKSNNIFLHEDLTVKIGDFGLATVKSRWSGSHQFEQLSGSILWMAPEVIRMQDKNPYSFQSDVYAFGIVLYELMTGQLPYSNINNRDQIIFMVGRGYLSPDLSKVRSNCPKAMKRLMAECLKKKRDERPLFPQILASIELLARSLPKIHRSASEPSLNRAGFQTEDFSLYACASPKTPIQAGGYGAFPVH

SMILES | GI50 [nM]
Cc1ncc(NC(=O)c2cc(C(F)(F)F)ccn2)cc1Nc1ncccc1-c1ncnc2[nH]cnc12 [Compound I-16, N-(5-(3-(9H-purin-6-yl)pyridin-2-ylamino)-6-methylpyridin-3-yl)-4-(trifluoromethyl)picolinamide] | < 20
Cc1ccc(NC(=O)c2cnc(C)c(C#N)c2)cc1Nc1ncccc1-c1ncnc2[nH]cnc12 [Compound I-48, N-(3-(3-(9H-purin-6-yl)pyridin-2-ylamino)-4-methylphenyl)-5-cyano-6-methylnicotinamide] | ≥ 500
Cc1c(F)cc(NC(=O)c2cc(C(F)(F)F)ccn2)cc1Nc1ncccc1-c1ncnc2[nH]cnc12 [Compound I-29, N-(3-(3-(9H-purin-6-yl)pyridin-2-ylamino)-5-fluoro-4-methylphenyl)-4-(trifluoromethyl)picolinamide] | 20 to 100
Cc1c(F)cc(NC(=O)c2ccnc(C3(F)CC3)c2)cc1Nc1ncccc1-c1ncnc2[nH]cnc12 [Compound I-72, N-(3-((3-(9H-purin-6-yl)pyridin-2-yl)amino)-5-fluoro-4-methylphenyl)-2-(1-fluorocyclopropyl)isonicotinamide] | < 20
Cc1ccc(NC(=O)c2cc(C(F)(F)F)ccn2)cc1Nc1ncccc1-c1ncnc2[nH]cnc12 [Compound I-2, N-(3-(3-(9H-Purin-6-yl)pyridin-2-ylamino)-4-methylphenyl)-4-(trifluoromethyl)picolinamide] | < 20
Cc1ccc(C(=O)Nc2ccc(C)c(Nc3ncccc3-c3ncnc4[nH]cnc34)c2)cc1C#N [Compound I-43, N-(3-((3-(9H-purin-6-yl)pyridin-2-yl)amino)-4-methylphenyl)-3-cyano-4-methylbenzamide] | < 20
Cc1ncc(C(=O)Nc2cccc(C3(C#N)CC3)c2)cc1Nc1ncccc1-c1ncnc2[nH]cnc12 [Compound I-58, 5-((3-(9H-purin-6-yl)pyridin-2-yl)amino)-N-(3-(1-cyanocyclopropyl)phenyl)-6-methylnicotinamide] | 20 to 100
Cc1ccc(NC(=O)c2ccnc(C3CC3)c2)cc1Nc1ncccc1-c1ncnc2[nH]cnc12 [Compound I-19, N-(3-((3-(9H-purin-6-yl)pyridin-2-yl)amino)-4-methylphenyl)-2-cyclopropylisonicotinamide] | < 20
CCc1ccc(NC(=O)c2cc(C(F)(F)F)ccn2)cc1Nc1ncccc1-c1ncnc2[nH]cnc12 [Compound I-68, N-(3-((3-(9H-purin-6-yl)pyridin-2-yl)amino)-4-ethylphenyl)-4-(trifluoromethyl)picolinamide] | 20 to 100
Cc1ccc(NC(=O)c2cnc(C(F)(F)F)c(C#N)c2)cc1Nc1ncccc1-c1ncnc2[nH]cnc12 [Compound I-70, N-(3-((3-(9H-purin-6-yl)pyridin-2-yl)amino)-4-methylphenyl)-5-cyano-6-(trifluoromethyl)nicotinamide] | 20 to 100
Cc1ccc(NC(=O)c2cc(C#N)c(Cl)cn2)cc1Nc1ncccc1-c1ncnc2[nH]cnc12 [Compound I-39, N-(3-((3-(9H-purin-6-yl)pyridin-2-yl)amino)-4-methylphenyl)-5-chloro-4-cyanopicolinamide] | ≥ 500
Cc1c(F)cc(C(=O)Nc2cccc(C(F)(F)F)c2)cc1Nc1ncccc1-c1ncnc2[nH]cnc12 [Compound I-53, 3-((3-(9H-purin-6-yl)pyridin-2-yl)amino)-5-fluoro-4-methyl-N-(3-(trifluoromethyl)phenyl)benzamide] | 20 to 100

The remaining lines, values ahead:

GI50 [nM] | SMILES
100 to 500 | Cc1cc(C)c(Nc2ncccc2-c2ncnc3[nH]cnc23)cc1NC(=O)c1cc(C(F)(F)F)ccn1 [IA-119, N-(5-((3-(9H-purin-6-yl)pyridin-2-yl)amino)-2,4-dimethylphenyl)-4-(trifluoromethyl)picolinamide]
< 20 | Cc1ccc(NC(=O)c2cc(C(F)(F)F)c(OCCN(C)C)cn2)cc1Nc1ncccc1-c1ncnc2[nH]cnc12 [IA-97, N-(3-(3-(9H-purin-6-yl)pyridin-2-ylamino)-4-methylphenyl)-5-(2-(dimethylamino)ethoxy)-4-(trifluoromethyl)picolinamide]
< 20 | Cc1nc2c(-c3cccnc3Nc3cc(NC(=O)c4ccnc(C(C)(C)C#N)c4)ccc3C)ncnc2[nH]1 [IA-127, 2-(2-cyanopropan-2-yl)-N-(4-methyl-3-((3-(8-methyl-9H-purin-6-yl)pyridin-2-yl)amino)phenyl)isonicotinamide]
100 to 500 | Cc1ccc(NC(=O)C[C@@H]2CCN[C@@H](C(F)(F)F)C2)cc1Nc1ncccc1-c1ncnc2[nH]cnc12 (single isomer, unassigned) [IA-144]
< 20 | Cc1ccc(NC(=O)c2nccc(C(F)(F)F)c2Cl)cc1Nc1ncccc1-c1ncnc2[nH]cnc12 [IA-106, N-(3-(3-(9H-purin-6-yl)pyridin-2-ylamino)-4-methylphenyl)-3-chloro-4-(trifluoromethyl)picolinamide]
≥ 500 | Cc1ccc(NC(=O)CN2CCCN(C)CC2)cc1Nc1ncccc1-c1ncnc2[nH]cnc12 [IA-135, N-(3-((3-(9H-purin-6-yl)pyridin-2-yl)amino)-4-methylphenyl)-2-(4-methyl-1,4-diazepan-1-yl)acetamide]
20 to 100 | Cc1ccc(NC(=O)CC2CC(C(F)(F)F)CCO2)cc1Nc1ncccc1-c1ncnc2[nH]cnc12 (centres unmarked) [IA-105, N-(3-((3-(9H-purin-6-yl)pyridin-2-yl)amino)-4-methylphenyl)-2-(4-(trifluoromethyl)tetrahydro-2H-pyran-2-yl)acetamide]
20 to 100 | Cc1ccc(NC(=O)c2cc(C(F)(F)F)ccn2)cc1Nc1nccnc1-c1ncnc2[nH]cnc12 [IA-120, N-(3-(3-(9H-purin-6-yl)pyrazin-2-ylamino)-4-methylphenyl)-4-(trifluoromethyl)picolinamide]
< 20 | Cc1ccc(NC(=O)c2cc(C(F)(F)F)cc(OCCO)n2)cc1Nc1ncccc1-c1ncnc2[nH]cnc12 [IA-98, N-(3-((3-(9H-purin-6-yl)pyridin-2-yl)amino)-4-methylphenyl)-6-(2-hydroxyethoxy)-4-(trifluoromethyl)picolinamide]
< 20 | Cc1ccc(NC(=O)C[C@H]2CCC[C@H](C(F)(F)F)C2)cc1Nc1ncccc1-c1ncnc2[nH]cnc12 (single isomer, unassigned) [IA-139]
< 20 | COc1c(C(F)(F)F)ccnc1C(=O)Nc1ccc(C)c(Nc2ncccc2-c2ncnc3[nH]cnc23)c1 [IA-101, N-(3-(3-(9H-purin-6-yl)pyridin-2-ylamino)-4-methylphenyl)-3-methoxy-4-(trifluoromethyl)picolinamide]
≥ 500 | Cc1ccc(NC(=O)c2cc(C(F)(F)F)ccn2)cc1Nc1nnccc1-c1ncnc2[nH]cnc12 [IA-121, N-(3-((4-(9H-purin-6-yl)pyridazin-3-yl)amino)-4-methylphenyl)-4-(trifluoromethyl)picolinamide]
100 to 500 | Cc1ccc(NC(=O)CC2CCCOCC2)cc1Nc1ncccc1-c1ncnc2[nH]cnc12 (centres unmarked) [IA-102, N-(3-(3-(9H-purin-6-yl)pyridin-2-ylamino)-4-methylphenyl)-2-(oxepan-4-yl)acetamide]
< 20 | Cc1ccc(NC(=O)CC2CCCCCC2)cc1Nc1ncccc1-c1ncnc2[nH]cnc12 [IA-113, N-(3-((3-(9H-purin-6-yl)pyridin-2-yl)amino)-4-methylphenyl)-2-cycloheptylacetamide]
